pIC50, pKi: −log10 of the molar value.
Key:
[1] = Volume of distribution in dog; assay type: ADME, organism-based, Canis lupus familiaris; details: in vivo, read-out: Vdss
[2] = Clearance in dog; assay type: ADME, organism-based, Canis lupus familiaris; details: in vivo
Oryctolagus cuniculus [3] = species: Oryctolagus cuniculus; assay: cells
[4] = Oral bioavailability in orally dosed dog; assay type: ADME, organism-based, Canis lupus familiaris; details: in vivo
[5] = Half life in orally dosed dog; assay type: ADME, organism-based, Canis lupus familiaris; details: in vivo, po
Coagulation factor X = Coagulation factor X (Homo sapiens, UniProt P00742); assay: Binding affinity to human F10a
[6] = Protein binding in plasma by equilibrium dialysis assay; assay type: ADME, cell-free; details: read-out: PPB (converted)
[7] = molecular target: Coagulation factor VII/tissue factor (Homo sapiens) (UniProt P08709+P13726); assay: Anticoagulant activity in plasma by PT assay; assay type: functional, cell-free
[8] = Apparent permeability in Caco-2 cells; assay type: ADME, cell-based; details: human
Prothrombin = Prothrombin (Homo sapiens, UniProt P00734); assay: Binding affinity to human F2a
[9] = molecular target: Tissue-type plasminogen activator (Homo sapiens, UniProt P00750); assay: Binding affinity to human tPA
Trypsin = Trypsin (Homo sapiens, UniProt P07477+P07478+P35030); assay: Binding affinity to human trypsin; assay type: protein assay
[10] = molecular target: Vitamin K-dependent protein C (Homo sapiens, UniProt P04070); assay: Binding affinity to human APC
Chymotrypsinogen B = Chymotrypsinogen B (Homo sapiens, UniProt P17538); assay: Binding affinity to human chymotrypsin
Plasminogen = Plasminogen (Homo sapiens, UniProt P00747); assay: Binding affinity to human plasmin
Coagulation factor VII = molecular target: T1, Coagulation factor VII (Homo sapiens, UniProt P08709); assay: Binding affinity to human f7a
T1 sequence (P08709 whole entry): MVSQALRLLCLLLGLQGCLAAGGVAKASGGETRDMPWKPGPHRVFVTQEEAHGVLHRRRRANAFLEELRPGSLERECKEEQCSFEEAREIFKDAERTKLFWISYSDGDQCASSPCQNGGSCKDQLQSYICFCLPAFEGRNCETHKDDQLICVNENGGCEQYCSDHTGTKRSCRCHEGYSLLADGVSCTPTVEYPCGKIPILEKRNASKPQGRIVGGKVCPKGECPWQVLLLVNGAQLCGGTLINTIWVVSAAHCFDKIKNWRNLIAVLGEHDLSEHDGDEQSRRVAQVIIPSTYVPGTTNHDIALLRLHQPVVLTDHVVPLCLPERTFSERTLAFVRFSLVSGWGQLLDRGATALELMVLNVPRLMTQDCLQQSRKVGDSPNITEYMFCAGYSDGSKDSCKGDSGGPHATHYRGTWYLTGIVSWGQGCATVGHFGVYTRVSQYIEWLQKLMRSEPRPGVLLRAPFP

Coagulation factor IX = Coagulation factor IX (Homo sapiens, UniProt P00740); assay: Binding affinity to human f9a
Plasma kallikrein = Plasma kallikrein (Homo sapiens, UniProt P03952); assay: Binding affinity to human plasma kallikrein; assay type: cell-free
Oryctolagus cuniculus [11] = species: Oryctolagus cuniculus

Chain of Coagulation factor X (P00742 41-179 limits assumed): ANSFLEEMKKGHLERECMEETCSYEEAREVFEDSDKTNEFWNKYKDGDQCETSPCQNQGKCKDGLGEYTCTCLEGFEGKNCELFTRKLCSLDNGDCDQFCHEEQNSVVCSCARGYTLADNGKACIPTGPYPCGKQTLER
Chain of Coagulation factor X (P00742 235-488 limits assumed): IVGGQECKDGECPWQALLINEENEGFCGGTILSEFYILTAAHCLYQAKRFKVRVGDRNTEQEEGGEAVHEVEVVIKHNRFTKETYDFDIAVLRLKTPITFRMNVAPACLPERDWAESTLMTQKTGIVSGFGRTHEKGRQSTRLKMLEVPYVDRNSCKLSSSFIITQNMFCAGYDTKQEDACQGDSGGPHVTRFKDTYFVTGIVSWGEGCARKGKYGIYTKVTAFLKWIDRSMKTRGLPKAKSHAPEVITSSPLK
Chain of Vitamin K-dependent protein C (P04070 43-197 limits assumed): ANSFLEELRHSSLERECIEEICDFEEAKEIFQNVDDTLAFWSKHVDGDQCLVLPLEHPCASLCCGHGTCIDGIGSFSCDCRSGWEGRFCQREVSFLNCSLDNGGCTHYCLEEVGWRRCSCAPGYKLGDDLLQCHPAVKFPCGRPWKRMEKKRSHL
Chain of Vitamin K-dependent protein C (P04070 212-461 limits assumed): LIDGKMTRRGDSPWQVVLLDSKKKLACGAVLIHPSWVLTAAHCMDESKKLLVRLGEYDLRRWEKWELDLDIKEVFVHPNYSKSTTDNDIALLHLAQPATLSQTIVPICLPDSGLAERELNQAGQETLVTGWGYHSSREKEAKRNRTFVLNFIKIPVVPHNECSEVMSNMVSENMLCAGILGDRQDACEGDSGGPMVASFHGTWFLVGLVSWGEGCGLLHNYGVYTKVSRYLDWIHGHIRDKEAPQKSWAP
Chain of Coagulation factor IX (P00740 47-191 limits assumed): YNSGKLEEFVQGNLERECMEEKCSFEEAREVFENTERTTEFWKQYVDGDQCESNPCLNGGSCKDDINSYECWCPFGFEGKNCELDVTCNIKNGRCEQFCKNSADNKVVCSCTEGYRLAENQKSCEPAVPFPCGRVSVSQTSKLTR
Chain of Coagulation factor IX (P00740 227-461 limits assumed): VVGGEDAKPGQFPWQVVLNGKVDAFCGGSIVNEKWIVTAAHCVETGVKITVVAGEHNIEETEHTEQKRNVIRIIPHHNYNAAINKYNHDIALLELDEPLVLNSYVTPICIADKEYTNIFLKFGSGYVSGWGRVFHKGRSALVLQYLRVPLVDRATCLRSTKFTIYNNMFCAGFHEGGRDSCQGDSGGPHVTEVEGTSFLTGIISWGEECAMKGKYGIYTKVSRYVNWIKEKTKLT
Chain of Plasma kallikrein (P03952 20-390 limits assumed): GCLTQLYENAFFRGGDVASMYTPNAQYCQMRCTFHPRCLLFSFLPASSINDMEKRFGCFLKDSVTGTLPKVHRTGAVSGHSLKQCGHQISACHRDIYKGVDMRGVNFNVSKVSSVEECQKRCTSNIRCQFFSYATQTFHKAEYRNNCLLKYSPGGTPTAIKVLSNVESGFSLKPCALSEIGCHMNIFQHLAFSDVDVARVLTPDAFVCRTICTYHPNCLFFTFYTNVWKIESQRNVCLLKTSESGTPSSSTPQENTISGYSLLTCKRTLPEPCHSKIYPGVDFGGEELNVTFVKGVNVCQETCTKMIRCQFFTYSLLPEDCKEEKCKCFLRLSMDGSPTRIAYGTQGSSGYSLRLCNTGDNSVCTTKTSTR
Chain of Plasma kallikrein (P03952 391-638 limits assumed): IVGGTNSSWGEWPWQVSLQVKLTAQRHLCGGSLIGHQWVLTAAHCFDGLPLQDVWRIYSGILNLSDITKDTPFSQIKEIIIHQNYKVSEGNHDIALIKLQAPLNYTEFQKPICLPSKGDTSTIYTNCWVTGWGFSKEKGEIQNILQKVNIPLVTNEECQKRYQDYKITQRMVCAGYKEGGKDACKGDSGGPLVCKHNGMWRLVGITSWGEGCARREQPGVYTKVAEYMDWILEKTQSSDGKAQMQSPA
Chain of Plasminogen (P00747 97-580 limits assumed): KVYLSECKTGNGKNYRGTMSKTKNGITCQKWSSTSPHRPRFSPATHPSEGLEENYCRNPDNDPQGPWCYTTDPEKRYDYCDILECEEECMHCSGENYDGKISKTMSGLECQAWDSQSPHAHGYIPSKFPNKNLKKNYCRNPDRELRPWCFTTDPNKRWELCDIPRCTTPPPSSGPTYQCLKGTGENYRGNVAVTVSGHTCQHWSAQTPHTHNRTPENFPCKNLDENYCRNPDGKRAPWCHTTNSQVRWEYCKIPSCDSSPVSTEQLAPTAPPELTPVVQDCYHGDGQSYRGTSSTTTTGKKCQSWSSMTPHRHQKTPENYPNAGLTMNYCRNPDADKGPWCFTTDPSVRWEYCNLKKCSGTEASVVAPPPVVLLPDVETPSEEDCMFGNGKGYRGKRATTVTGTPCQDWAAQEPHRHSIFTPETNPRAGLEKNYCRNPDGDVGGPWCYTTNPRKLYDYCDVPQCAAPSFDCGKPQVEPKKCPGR
Chain of Plasminogen (P00747 581-810 limits assumed): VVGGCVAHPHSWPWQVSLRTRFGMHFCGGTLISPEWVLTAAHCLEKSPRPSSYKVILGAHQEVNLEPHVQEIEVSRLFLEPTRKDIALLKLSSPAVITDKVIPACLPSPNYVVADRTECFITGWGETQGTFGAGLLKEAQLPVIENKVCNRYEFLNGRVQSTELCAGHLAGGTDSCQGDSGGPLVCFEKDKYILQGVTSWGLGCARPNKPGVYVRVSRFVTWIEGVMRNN
Chain of Tissue-type plasminogen activator (P00750 whole entry): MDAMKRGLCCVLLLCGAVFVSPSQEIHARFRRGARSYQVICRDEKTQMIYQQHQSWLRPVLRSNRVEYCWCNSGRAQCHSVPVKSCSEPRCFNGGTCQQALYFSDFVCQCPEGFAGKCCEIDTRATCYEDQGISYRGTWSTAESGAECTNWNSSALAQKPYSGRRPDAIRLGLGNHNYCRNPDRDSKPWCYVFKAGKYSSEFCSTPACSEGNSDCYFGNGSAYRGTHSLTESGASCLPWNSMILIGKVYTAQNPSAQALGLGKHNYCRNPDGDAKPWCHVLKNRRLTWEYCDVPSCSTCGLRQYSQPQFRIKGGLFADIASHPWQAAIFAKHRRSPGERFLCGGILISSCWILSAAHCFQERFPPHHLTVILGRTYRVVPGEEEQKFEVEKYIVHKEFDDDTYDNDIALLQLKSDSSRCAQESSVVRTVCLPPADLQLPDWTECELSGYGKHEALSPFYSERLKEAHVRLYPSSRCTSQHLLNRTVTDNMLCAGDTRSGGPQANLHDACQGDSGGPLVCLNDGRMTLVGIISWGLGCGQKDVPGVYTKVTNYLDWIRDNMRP
Chain of Chymotrypsinogen B (P17538 34-164 limits assumed, other chains not shown): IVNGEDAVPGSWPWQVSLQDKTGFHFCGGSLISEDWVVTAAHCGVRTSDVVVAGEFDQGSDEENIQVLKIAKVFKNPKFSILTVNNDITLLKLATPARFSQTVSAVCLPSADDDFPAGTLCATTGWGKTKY
Chain of Chymotrypsinogen B (P17538 167-263 limits assumed, other chains not shown): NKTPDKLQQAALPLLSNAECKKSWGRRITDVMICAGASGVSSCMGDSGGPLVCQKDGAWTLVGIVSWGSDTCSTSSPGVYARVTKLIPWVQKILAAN

SMILES | bioavailability [4] [%] | pKi (Coagulation factor X) | 2PT [7] [µM] | pKi (Prothrombin) | Vd [1] [L/kg] | clearance [2] [mL/min/kg] | half-life [5] [h] | also measured
Nc1noc2ccc(-n3nc(C(F)(F)F)c4c3C(=O)N(c3ccc(-c5ccccc5CN5CCCC5)cc3F)CC4)cc12 | 85 | 9.62 | 6.1 | – | 4.8 | 13.2 | 4.9 | pIC50 (Oryctolagus cuniculus [3]): 6.00; fraction unbound [6]: < 0.02
Nc1noc2ccc(-n3nc(C(F)(F)F)c4c3C(=O)N(c3ccc(-c5ccccc5CN5CC[C@@H](O)C5)cc3F)CC4)cc12 | 81 | 9.80 | 8.4 | 7.14 | 2.8 | 5.83 | 5.9 | Papp [8]: 13 ×10⁻⁶ cm/s; pIC50 (Oryctolagus cuniculus [3]): 6.22; fraction unbound [6]: < 0.02
Nc1noc2ccc(-n3nc(C(F)(F)F)c4c3C(=O)N(c3ccc(-c5ccccc5CN5CCNCC5)cc3)CC4)cc12 | – | 9.19 | 14 | 6.55 | – | – | – | –
Nc1noc2ccc(-n3nc(C(F)(F)F)c4c3C(=O)N(c3ccc(-c5ccccc5CN5CC[C@@H](O)C5)cc3)CC4)cc12 | 82 | – | 3.6 | 7.46 | – | – | – | Papp [8]: 1.7 ×10⁻⁶ cm/s; pKi [9]: < 5.55; Ki (Trypsin): > 2800 nM; pKi [10]: < 5.55; pKi (Chymotrypsinogen B): < 5.55; fraction unbound [6]: 0.026; pKi (Plasminogen): < 5.55; pKi (Coagulation factor VII): < 5.55; pKi (Coagulation factor IX): < 5.55; pKi (Plasma kallikrein): < 5.55
Cc1nn(-c2ccc3onc(N)c3c2)c2c1CCN(c1ccc(-c3ccccc3CN3CC[C@@H](O)C3)cc1)C2=O | 44 | 9.57 | 2.8 | 6.89 | 0.75 | 7 | 1.7 | ID50 (Oryctolagus cuniculus [11]): 0.6 ug/hr.kg; Papp [8]: 6.2 ×10⁻⁶ cm/s
Cc1nn(-c2ccc3onc(N)c3c2)c2c1CCN(c1ccc(-c3ccccc3CN3CC[C@@H](O)C3)cc1F)C2=O | 62 | 9.47 | 4.9 | 6.60 | 1.1 | 15.7 | 1.1 | –
Cc1nn(-c2ccc3onc(N)c3c2)c2c1CCN(c1ccc(-c3ccccc3CN3CCCC3)cc1)C2=O | 10 | 9.51 | 1.4 | 6.92 | 3.3 | 31.7 | 1.7 | –
Nc1noc2ccc(-n3nc(C(F)(F)F)c4c3C(=O)N(c3ccc(-c5ccccc5CN5CCCC5)cc3)CC4)cc12 | 37 | 9.82 | 3.2 | 7.24 | 5 | 16.8 | 5.3 | –
Nc1noc2ccc(-n3nc(C(F)(F)F)c4c3C(=O)N(c3ccc(-c5ccccc5CN5CCOCC5)cc3)CC4)cc12 | – | 9.46 | 41 | 6.89 | – | – | – | –
CN(C)Cc1ccccc1-c1ccc(N2CCc3c(C(F)(F)F)nn(-c4ccc5onc(N)c5c4)c3C2=O)cc1 | 50 | 10.40 | 2.7 | 7.37 | 4.5 | 16.3 | 3.8 | Papp [8]: 4.7 ×10⁻⁶ cm/s; pIC50 (Oryctolagus cuniculus [3]): 6.65
CN(C)Cc1ccccc1-c1ccc(N2CCc3c(C(F)(F)F)nn(-c4ccc5onc(N)c5c4)c3C2=O)c(F)c1 | 83 | 9.89 | 5.6 | 7.12 | 8.8 | 17.5 | 6.4 | Papp [8]: 8.9 ×10⁻⁶ cm/s; pIC50 (Oryctolagus cuniculus [3]): 6.22; fraction unbound [6]: < 0.02
Nc1noc2ccc(-n3nc(C(F)(F)F)c4c3C(=O)N(c3ccc(-c5ccccc5CN5CCC(O)CC5)cc3)CC4)cc12 | 102 | 9.66 | 4.9 | 7.15 | 1.4 | 3.5 | 6.4 | Papp [8]: 0.4 ×10⁻⁶ cm/s; pIC50 (Oryctolagus cuniculus [3]): 6.29
Nc1noc2ccc(-n3nc(C(F)(F)F)c4c3C(=O)N(c3ccc(-c5ccccc5CN5CC[C@H](O)C5)cc3)CC4)cc12 | 52 | – | 4.8 | 7.23 | 1.12 | 4.5 | 4.5 | –
CN1CCN(Cc2ccccc2-c2ccc(N3CCc4c(C(F)(F)F)nn(-c5ccc6onc(N)c6c5)c4C3=O)cc2)CC1 | – | 9.15 | 31 | 6.64 | – | – | – | –
CNCc1ccccc1-c1ccc(N2CCc3c(C(F)(F)F)nn(-c4ccc5onc(N)c5c4)c3C2=O)cc1 | 67 | 9.47 | 3.7 | 6.82 | 9.7 | 27.7 | 7.4 | –

More lines, main results first:

bioavailability [4] [%] | pKi (Coagulation factor X) | 2PT [7] [µM] | pKi (Prothrombin) | SMILES | Vd [1] [L/kg] | clearance [2] [mL/min/kg] | half-life [5] [h] | also measured
– | 9.07 | 8.5 | – | CN(C)Cc1ccccc1-c1ccc(N2CCCc3c(C(F)(F)F)nn(-c4ccc5onc(N)c5c4)c3C2=O)c(F)c1 | – | – | – | –
– | – | 4.2 | – | CN(C)Cc1ccccc1-c1ccc(NC(=O)c2cc(C(F)(F)F)nn2-c2ccc3onc(N)c3c2)c(F)c1 | – | – | – | –
– | 9.96 | 3 | 7.01 | CCN(CC)Cc1ccccc1-c1ccc(N2CCc3c(C(F)(F)F)nn(-c4ccc5onc(N)c5c4)c3C2=O)cc1 | – | – | – | –
– | – | 2.1 | – | CN(C)Cc1nccn1-c1ccc(NC(=O)c2cc(C(F)(F)F)nn2-c2ccc3onc(N)c3c2)c(F)c1 [RAZAXABAN] | – | – | – | pKi [10]: < 5.64
– | 9.60 | 1.4 | – | CN(C)Cc1ccccc1-c1ccc(N2CNc3c(C(F)(F)F)nn(-c4ccc5onc(N)c5c4)c3C2=O)cc1 | – | – | – | –
13 | 9.26 | 2.1 | 6.42 | Cc1nn(-c2ccc3onc(N)c3c2)c2c1CCN(c1ccc(-c3ccccc3CN(C)C)cc1)C2=O | 6.4 | 53.3 | 1.6 | Papp [8]: 6.8 ×10⁻⁶ cm/s
– | > 10.00 | 3.2 | 7.24 | CCN(C)Cc1ccccc1-c1ccc(N2CCc3c(C(F)(F)F)nn(-c4ccc5onc(N)c5c4)c3C2=O)cc1 | – | – | – | –
– | 9.09 | 4 | – | CN(C)Cc1ccccc1-c1ccc(N2CCCc3c(C(F)(F)F)nn(-c4ccc5onc(N)c5c4)c3C2=O)cc1 | – | – | – | –
– | 9.22 | 15 | – | CN(C)Cc1ccccc1-c1ccc(N2CC=Cc3c(C(F)(F)F)nn(-c4ccc5onc(N)c5c4)c3C2=O)c(F)c1 | – | – | – | –
– | 9.22 | 6.9 | – | CN(C)Cc1ccccc1-c1ccc(N2CC=Cc3c(C(F)(F)F)nn(-c4ccc5onc(N)c5c4)c3C2=O)cc1 | – | – | – | –

From ChEMBL document CHEMBL1146858 (Bioorg Med Chem Lett, 2006)
